# From article PMC6792352, “Limited Chemical Structural Diversity Found to Modulate Thyroid Hormone Receptor in the Tox21 Chemical Library” (Environmental Health Perspectives, 2019)
# Structures can show the parent of a compound that is named as a salt.
# Assay: in vitro
# Conditions: rat, gh3-tre-luc cells, AC50 (uM) modified / 1000
row,Compound,CC50 at 24 h [µM]
1,O=C(O)c1ccccc1Cl [2-Chlorobenzoic acid],> 90
2,CCn1cc(C(=O)O)c(=O)c2cnc(N3CCNCC3)nc21 [Pipemidic acid],> 20
3,O=C(NCO)NCO [Dimethylolurea],> 100
4,CCCCCC=CCC1CC(=O)OC1=O (stereo not shown) [2-Octen-1-ylsuccinic anhydride],> 90
5,CCCCN(CCCC)CCCOC(=O)c1ccc(N)cc1 [Butacaine],> 20
6,O=C(O)CCC(=O)Nc1ccc(S(=O)(=O)Nc2nccs2)cc1 [Succinylsulfathiazole],> 20
7,CCCCC(O)c1ccccc1 (stereo not shown) [Fenipentol],> 50
8,Nc1ccc(S(=O)(=O)Nc2cnc3ccccc3n2)cc1 [Sulfaquinoxaline],> 90
9,CC(CC=O)c1ccccc1 (stereo not shown) [3-Phenylbutyraldehyde],> 90
10,CO[C@H]1[C@@H](O)[C@H](N)[C@@H](O[C@H]2O[C@H]([C@H](C)N)CC[C@H]2N)[C@H](O)[C@@H]1N(C)C(=O)CN [Astromicin],> 50
11,COc1ccccc1Oc1c(NS(=O)(=O)c2ccc(C(C)(C)C)cc2)nc(-c2ncccn2)nc1OCCO [Bosentan],> 50
12,O=C1OC(c2cc(I)c(O)c(I)c2)(c2cc(I)c(O)c(I)c2)c2ccccc21 [Iodophthalein],36.2
13,"OCCOc1ccc(OCCO)cc1 [2,2'-[1,4-Phenylenebis(oxy)]diethanol]",> 90
14,CC/C=C/C#N [2-Pentenenitrile],> 90
15,O=C(O)CCCCCCCC(=O)O [Nonanedioic acid],> 90
16,N=C(N)NN=C1C=CC(=NNC(N)=S)C=C1 [Ambazone],23
17,CS(=O)(=O)OCCCNCCCOS(C)(=O)=O [Improsulfan tosylate],> 50
18,O=[N+]([O-])c1c(Cl)cccc1-c1c[nH]cc1Cl [Pyrrolnitrin],23.7
19,COc1cc2ncnc(Nc3ccc(F)c(Cl)c3)c2cc1OCCCN1CCOCC1 [Gefitinib],8.92
20,"CC(=O)C(Cl)(Cl)Cl [1,1,1-Trichloropropanone]",13.3
21,CC(C)C(=O)Nc1ccc([N+](=O)[O-])c(C(F)(F)F)c1 [Flutamide],88.9

row,Compound,CC50 at 24 h [µM]
1,COC(=O)CCCCC(=O)O [Methyl hexanedioate],> 90
2,c1ccc2c(c1)Sc1ccccc1N2CC1CN2CCC1CC2 (stereo not shown) [Mequitazine],7.76
3,COc1ccccc1N1CCN(CCCCNC(=O)c2ccc(-c3ccc(C(C)=O)cc3)cc2)CC1 [GR 103691],> 50
4,"CCC(C)CCCC(C)(C)O (stereo not shown) [2,6-Dimethyloctan-2-ol]",> 90
5,C[C@H]1C[C@H]2[C@@H]3CCC4=CC(=O)C=C[C@]4(C)[C@@]3(Cl)[C@@H](O)C[C@]2(C)[C@@]1(O)C(=O)CO [Beclomethasone],> 50
6,CSc1c(Cl)c(Cl)c(Cl)c(Cl)c1Cl [Pentachlorothioanisole],81.6
7,O=C(Oc1ccccc1)c1ccccc1 [Phenyl benzoate],> 90
8,Cc1cc(Cl)ccc1OCC(=O)O [MCPA],> 90
9,"CCCCCCCCN(C)C [N,N-Dimethyloctylamine]",> 90
10,CCN1CCc2nc(N)oc2CC1 [Azepexole hydrochloride],> 50
11,CCCNC(C)C(=O)Nc1c(C)csc1C(=O)OC (stereo not shown) [Articaine hydrochloride],> 20
12,CCCCCCOC(=O)CC [Hexyl propanoate],> 90
13,C[C@@H]1C[C@H]2[C@@H]3CCC4=CC(=O)C=C[C@]4(C)[C@@]3(F)[C@@H](O)C[C@]2(C)[C@@]1(O)C(=O)CO [Dexamethasone],> 90
14,C[C@]12CC[C@@H]3c4ccc(O)cc4CC[C@H]3[C@@H]1CCC2=O [Estrone],> 50
15,CO/C=C(/C(=O)OC)c1ccccc1Oc1cc(Oc2ccccc2C#N)ncn1 [Azoxystrobin],> 100
16,Fc1ccccc1[C@@H](F)COC1CCC(Nc2ncnc3[nH]ncc23)CC1 (stereo partly shown) [MK-968],82.7
17,"O=C(c1ccc(O)cc1)c1ccc(O)cc1O [2,4,4'-Trihydroxybenzophenone]",> 90
18,CCCCC[C@@H](O)[C@H]1C(=O)O[C@H](C)[C@@H](O)/C=C/C=C/C=C/C=C/C=C(\C)[C@@H](O)[C@H](O)[C@H](O)C[C@H](O)C[C@H](O)C[C@H](O)C[C@H](O)C[C@@H]1O [Pentamycin],> 50
19,CCOC(=O)OCC [Diethyl carbonate],> 100
20,"Cc1cccc(O)c1C [2,3-Dimethylphenol]",> 90
21,C=C(C)C(=O)OCCOCCOCCOC(=O)C(=C)C [Triethylene glycol dimethacrylate],> 90

row,Compound,CC50 at 24 h [µM]
1,ClCCOCCCl [Bis(2-chloroethyl) ether],> 90
2,C[C@@H]1C[C@H]2[C@@H]3CCC4=CC(=O)C=C[C@]4(C)[C@@]3(Cl)[C@@H](O)C[C@]2(C)[C@@]1(OC(=O)c1ccco1)C(=O)CCl [Mometasone furoate],> 20
3,CC=C1CC2C=CC1C2 (stereo not shown) [5-Ethylidene-2-norbornene],> 90
4,CC(=O)O[C@@H]1C[C@H]2CC[C@]1(C)C2(C)C [Isobornyl acetate],> 90
5,CCC(=O)O[C@]1(C(=O)SCF)[C@H](C)C[C@H]2[C@@H]3C[C@H](F)C4=CC(=O)C=C[C@]4(C)[C@@]3(F)[C@@H](O)C[C@@]21C [Fluticasone propionate],> 20
6,CC(C)c1cc2c(cc1S(=O)(=O)O)[C@@]1(C)CCC[C@@](C)(C(=O)O)[C@@H]1CC2 [Ecabet],> 50
7,CC#CCC(C)[C@H](O)/C=C/[C@@H]1[C@H]2c3cccc(CCCC(=O)O)c3O[C@H]2C[C@H]1O (mixture of isomers) [Beraprost sodium],> 50
8,CCCCOC(=O)/C=C\C(=O)OCCCC [Dibutyl maleate],> 90
9,C=C/C(C)=C/C/C=C(\C)CCC=C(C)C [alpha-Farnesene],> 90
10,CCN(CC)CCOc1ccc2c(c1)C(=O)c1cc(OCCN(CC)CC)ccc1-2 [Tilorone],> 50
11,"c1cc(C(c2ccc(OCC3CO3)cc2)c2ccc(OCC3CO3)cc2)ccc1OCC1CO1 (stereo not shown) [2,2',2''-[Methanetriyltris(benzene-4,1-diyloxymethanediyl)]trioxirane]",19.4
12,"CC1(C)C(=O)NC(=O)N1CO [1-(Hydroxymethyl)-5,5-dimethylhydantoin]",> 90
13,CNC(=O)ON=CC(C)(C)[S+](C)[O-] (stereo not shown) [Aldicarb sulfoxide],> 90
14,CCN(CC)C(=O)SCc1ccc(Cl)cc1 [Thiobencarb],> 90
15,O=C(O)CN(CC(=O)O)Cc1cc2c(cc1O)Oc1cc(O)c(CN(CC(=O)O)CC(=O)O)cc1C21OC(=O)c2ccccc21 [Oftasceine],> 50
16,"CCN(C(=O)N(CC)c1ccccc1)c1ccccc1 [N,N'-Diethylcarbanilide]",> 90
17,CCCCCN(CCCCC)C(=O)C(CCC(=O)O)NC(=O)c1ccc(Cl)c(Cl)c1 (stereo not shown) [Lorglumide sodium],> 50
18,CSC(=O)c1cccc2nnsc12 [Acibenzolar-S-methyl],> 90
19,OCCN1CCN(CC/C=C2/c3ccccc3Sc3ccc(Cl)cc32)CC1 [Zuclopenthixol dihydrochloride],8.55
20,Cc1nnc(NS(=O)(=O)c2ccc(N)cc2)s1 [Sulfamethizole],> 50
21,CCCCCOC(=O)CCCCC [Pentyl hexanoate],> 90

# Same assay, conditions: rat, gh3-tre-luc cells, AC50 (uM) modified / 1000, Tox21_110001=Tox21_110893; viability, 1 nM T3 present, 24 h
row,Compound,CC50 at 24 h [µM]
1,"C[C@]12CCC(=O)C=C1CC[C@@H]1[C@@H]2CC[C@]2(C)C(=O)CC[C@@H]12 [4-Androstene-3,17-dione]",> 50

# Same assay, conditions: rat, gh3-tre-luc cells, AC50 (uM) modified / 1000, Tox21_110001=Tox21_111063; viability, 1 nM T3 present, 24 h
row,Compound,CC50 at 24 h [µM]
1,CCCC(C)(COC(N)=O)COC(N)=O [Meprobamate],> 50

# Same assay, conditions: rat, gh3-tre-luc cells, AC50 (uM) modified / 1000, Tox21_110001=Tox21_111273; viability, 1 nM T3 present, 24 h
row,Compound,CC50 at 24 h [µM]
1,COc1ccccc1N1CCNCC1 [1-(2-Methoxyphenyl)piperazine hydrochloride],> 50

# Same assay, conditions: rat, gh3-tre-luc cells, AC50 (uM) modified / 1000, Tox21_110001=Tox21_112042; viability, 1 nM T3 present, 24 h
row,Compound,CC50 at 24 h [µM]
1,CC(=O)[C@H]1CC[C@H]2[C@@H]3CC[C@@H]4C[C@H](O)CC[C@]4(C)[C@H]3CC[C@]12C [Eltanolone],> 50

# Same assay, conditions: rat, gh3-tre-luc cells, AC50 (uM) modified / 1000, Tox21_110001=Tox21_112833; viability, 1 nM T3 present, 24 h
row,Compound,CC50 at 24 h [µM]
1,CC(=O)OC1(c2ccccc2)CCN(CCc2ccccc2)CC1 [1-(2-Phenylethyl)-4-phenyl-4-acetoxypiperidine],84.5

# Same assay, conditions: rat, gh3-tre-luc cells, AC50 (uM) modified / 1000, Tox21_110001=Tox21_200332; viability, 1 nM T3 present, 24 h
row,Compound,CC50 at 24 h [µM]
1,CCCC(C)(COC(N)=O)COC(N)=O [Meprobamate],> 90

# Same assay, conditions: rat, gh3-tre-luc cells, AC50 (uM) modified / 1000, Tox21_110001=Tox21_200365; viability, 1 nM T3 present, 24 h
row,Compound,CC50 at 24 h [µM]
1,CC(C)[N+](=O)[O-] [2-Nitropropane],> 90

# Same assay, conditions: rat, gh3-tre-luc cells, AC50 (uM) modified / 1000, Tox21_110001=Tox21_200580; viability, 1 nM T3 present, 24 h
row,Compound,CC50 at 24 h [µM]
1,CNC [Dimethylammonium nitrate],> 90

# Same assay, conditions: rat, gh3-tre-luc cells, AC50 (uM) modified / 1000, Tox21_110001=Tox21_201048; viability, 1 nM T3 present, 24 h
row,Compound,CC50 at 24 h [µM]
1,Cc1c[nH]cn1 [4-Methylimidazole],> 90

# Same assay, conditions: rat, gh3-tre-luc cells, AC50 (uM) modified / 1000, Tox21_110001=Tox21_201640; viability, 1 nM T3 present, 24 h
row,Compound,CC50 at 24 h [µM]
1,C=C(C)CCl [3-Chloro-2-methylpropene],> 90

# Same assay, conditions: rat, gh3-tre-luc cells, AC50 (uM) modified / 1000, Tox21_110001=Tox21_202269; viability, 1 nM T3 present, 24 h
row,Compound,CC50 at 24 h [µM]
1,"C[C@]12CCC(=O)C=C1CC[C@@H]1[C@@H]2CC[C@]2(C)C(=O)CC[C@@H]12 [4-Androstene-3,17-dione]",> 90

# Same assay, conditions: rat, gh3-tre-luc cells, AC50 (uM) modified / 1000, Tox21_110001=Tox21_301354; viability, 1 nM T3 present, 24 h
row,Compound,CC50 at 24 h [µM]
1,O=[N+]([O-])c1ccc(Oc2ccc(C(F)(F)F)cc2[N+](=O)[O-])cc1 [Fluorodifen],> 90

# Same assay, conditions: rat, gh3-tre-luc cells, AC50 (uM) modified / 1000, Tox21_110001=Tox21_303609; viability, 1 nM T3 present, 24 h
row,Compound,CC50 at 24 h [µM]
1,C=C(C)CCl [3-Chloro-2-methylpropene],> 9
